Results as given in patent publication US8236761B2, “C-Met receptor regulation by angiotensin IV (AT4) receptor ligands” (Washington State University Research Foundation, priority 2006, dated 2012).
Non-standard residues stand in square brackets, D forms with d. No end group written: not given here. Nle = CCCC[C@H](N)C(=O)O

Experiments:
c-Met receptor = assay: Cross-linking of 125I-COMPOUND 2 or 125I-HGF to HEK293 cell membranes with unlabeled competitor; assay type: binding, human; details: 125I-HGF cross-linked to HEK293 cell membranes, FIG. 3B
Method: FIG. 3C: ^125I-Norleual was bound to HEK membranes in the presence or absence of 1.5 nM HGF (n=8) or 1 μM Norleual (n=6). Total binding is reported as percent control (n=10), (*p<0.001). Error bars indicate±SD. […] Error bars indicate SD and data points were performed in duplicate.
Briefly, COMPOUND 2 was iodinated with […] and bound and cross-linked to HEK cell membranes with or without 1 nM COMPOUND 2 or 1 nM hepatocyte growth factor. Following solubilization and separation of free label by molecular sieving, total radioactive counts were determined. The ability of the ligand COMPOUND 2 to compete with hepatocyte growth factor binding to the c-Met receptor was also tested using mouse liver plasma membranes and intact HEK293 cells. Briefly, mouse liver was homogenized and incubated with ^125I-HGF with various concentrations of HGF or COMPOUND 2. Membranes were pelleted and unbound label was removed by washing, and total radioactive counts were determined. Next, HEK293 cell membranes were cross-linked with ^125I-HGF with unlabeled HGF or COMPOUND 2.

MDCK cells = assay: HGF-induced MDCK cell scattering (coverslip assay); assay type: cell-based, canine
Method: FIG. 8A: Confluent MDCK cells on coverslips were treated with HGF (110 pM), or HGF (110 pM)+Norleual (100 pM) for 48 hours. Digital images of top, bottom, left, and right sectors were acquired and the scattering of cells In each digital image was scored in blinded fashion and normalized to control scores. The difference between HGF and HGF+Norleual groups was significant (*p=0.0245, n=3). Error bars indicate±SEM. FIG. 8B: MDCK cells were plated on 6 mm diameter coverslips in DMEM 10% FBS and grown to 100% confluency. The coverslips were then transferred to fresh 6 well plates and the cells were serum-deprived for 24 hours to synchronize the cells in the same growth state. Thereafter, the 20 ng/ml of HGF alone and in the presence of 10^−10 M Norleual in a 1% FBS DMEM was added to the cells. […] This ring was photographed and loaded on to NIH image J. Using NIH image J, the pixel count was determined for each ring. […]
Scattering assay. […] Scattering was scored in blinded fashion by comparison to a set of calibration scattering images by two investigators. […]
To explore the physiological significance of the angiotensin-like factor Norleual's ability to depress c-Met signaling, Norleual's effect on HGF induced cell scattering of Madin-Darby canine kidney (MDCK) cells was assessed with the coverslip assay (Miao et al., 2003 J. Cell Biol. 162: 1281-1292). […]

[1] = Chronic treatment: body weight, DXA body composition and pathology; assay type: in vivo, C57BL/6 mice
Method: Twenty-four five-week old C57BL/6 male mice were equally and randomly assigned to two groups. One group was assigned as control and the other treated. Treated mice were administered intermuscular (IM) injections of Norleual at 21 μg/kg/day, (40 μl injectable volume) every 48 hours for the duration of one hundred and one days. Injection sites were alternated between left and right gluteus medius. BD Ultra-Fine 3/10 cc insulin syringes were used as delivery apparatus. Mice were housed two per cage and had unlimited access to food and water. Mice were monitored daily for signs of morbidity. Mice were also weighed on a weekly basis. C57/BL6 mice were treated either with vehicle control or with Norleual chronically for 101 days.
To assess body composition of the mice, the Comparative Orthopedic Research Laboratory at the Washington State University Veterinary School was utilized. A Hologic QDR4500A fan beam dual-energy X-ray absorptiometer (DXA, Hologic Inc., Bedford, Mass.) was used to assess the lean body mass (muscle), fat, and bone composition of each mouse on day one hundred one of the experiment. Mice were sacrificed and DXA scans were performed. Due to the volume limitations of the DXA instrument and to permit time for gross pathology, half of the mice were sacrificed and analyzed on day 101. The remaining mice were sacrificed and analyzed 22 hours later. Control and treated mice were split evenly among the two sacrifice episodes. Data were collected and the control group was compared to the Norleual treated group by two-tailed student's t-tests using InStat software (GraphPad, San Diego, Calif.). Figures were created using GraphPad Prism software.
Gross pathology and microscopic pathological evaluation on autopsy tissue were performed in blinded fashion on animals following sacrifice, with attention to multiple organs.

Nle-Tyr-Leu-ψ-His-Pro-Phe ([Nle]YLHPF; also: reduced peptide bond psi(CH2NH2) between Leu and His) [Norleual]
Mode of inhibition of HGF binding to the c-Met receptor (c-Met receptor): competitive inhibitor of HGF binding to the c-Met receptor | HGF-induced MDCK cell scattering (MDCK cells; HGF 110 pM + Norleual 100 pM, 48 hours, FIG. 8A): inhibited | Hepatocyte growth factor-dependent cell scattering (MDCK cells; HGF 20 ng/ml, COMPOUND 2 10^−10M, FIG. 7): inhibited | Visual inspection of animals versus control ([1]; 101 days treatment): visibly less bulky | Scale measured weights versus control mice ([1]; IM 21 μg/kg/day every 48 hours, day 101, p=0.0130): significantly lower | Distribution of lipid vacuoles in the liver relative to control animals ([1]; autopsy tissue, blinded pathology): marked reduction | DXA measured bone mineral density versus control mice ([1]; day 101): not statistically significant | Percent fat versus control mice (DXA) ([1]; day 101, p<0.0001): significantly lower | DXA measured mass versus control mice ([1]; day 101, p=0.0146): significantly lower | DXA measured area versus control mice ([1]; day 101, p=0.023): significantly lower | Lean body mass+bone mineral content (BMC) versus control mice (DXA) ([1]; day 101, p=0.18): not significantly different
